What was measured:
Format in all cases: in vivo
Myzus persicae = Myzus persicae spray test (MYZUPE)
Experimental: Myzus persicae—Spray Test
(§1) To produce a suitable active ingredient formulation, 1 part by weight of active ingredient is dissolved with the specified parts by weight of solvent and made up to the desired concentration with water containing an emulsifier concentration of 1000 ppm. To produce further test concentrations, the formulation is diluted with emulsifier-containing water.
Discs of Chinese cabbage leaves (Brassica pekinensis) infested by all stages of the green peach aphid (Myzus persicae) are sprayed with an active compound preparation of the desired concentration.
After 5 days, the efficacy in % is determined. 100% means that all the aphids have been killed; 0% means that no aphids have been killed.
Myzus Persicae—Spray Test (MYZUPE)
as §1, with “compound” for “ingredient”
Discs of Chinese cabbage leaves (Brassica pekinensis) infested with all stages of the green peach aphid (Myzus persicae) are sprayed with an active compound formulation of the desired concentration.
After the desired time, the efficacy in % is determined. 100% means that all the aphids have been killed; 0% means that no aphids have been killed.

Phaedon cochleariae = Phaedon cochleariae spray test (PHAECO); details: for efficacy / pest or weed control at 100 g/ha: application rate 100 g/ha, spray, after 7 days; for pest or weed control at 100 g/ha: read-out: efficacy
Experimental: Phaedon cochleariae—Spray Test
as §1
After 7 days, the efficacy in % is determined. 100% means that all the beetle larvae have been killed; 0% means that no beetle larvae have been killed.
Phaedon cochleariae—Spray Test (PHAECO)
as §1, with “compound” for “ingredient”
Discs of Chinese cabbage leaves (Brassica pekinensis) are sprayed with an active compound formulation of the desired concentration and, after drying, populated with larvae of the mustard beetle (Phaedon cochleariae).
After the desired time, the efficacy in % is determined. 100% means that all the beetle larvae have been killed; 0% means that no beetle larvae have been killed.

Spodoptera frugiperda = Spodoptera frugiperda spray test (SPODFR); details: for efficacy / pest or weed control at 100 g/ha: application rate 100 g/ha, spray, after 7 days; for pest or weed control at 100 g/ha: read-out: efficacy
Experimental: Spodoptera frugiperda—Spray Test
as §1
Leaf discs of maize (Zea mays) are sprayed with an active ingredient formulation of the desired concentration and, after drying, populated with caterpillars of the armyworm (Spodoptera frugiperda).
After 7 days, the efficacy in % is determined. 100% means that all the caterpillars have been killed; 0% means that no caterpillar has been killed.
Spodoptera frugiperda—Spray Test (SPODFR)
as §1, with “compound” for “ingredient”
Leaf discs of maize (Zea mays) are sprayed with an active compound formulation of the desired concentration and, after drying, populated with caterpillars of the armyworm (Spodoptera frugiperda).
After the desired time, the efficacy in % is determined. 100% means that all the caterpillars have been killed; 0% means that no caterpillar has been killed.

Tetranychus urticae = Tetranychus urticae spray test, OP-resistant (TETRUR); details: for efficacy: spray, after 6 days
Experimental: Tetranychus urticae—Spray Test, OP-Resistant
as §1
Discs of bean leaves (Phaseolus vulgaris) infested with all stages of the greenhouse red spider mite (Tetranychus urticae) are sprayed with an active compound preparation of the desired concentration.
After 6 days, the efficacy in % is determined. 100% means that all the spider mites have been killed; 0% means that no spider mites have been killed.
Tetranychus urticae—Spray Test; OP-Resistant (TETRUR)
as §1, with “compound” for “ingredient”
Discs of bean leaves (Phaseolus vulgaris) infested with all stages of the greenhouse red spider mite (Tetranychus urticae) are sprayed with an active compound formulation of the desired concentration.
After the desired time, the efficacy in % is determined. 100% means that all the spider mites have been killed; 0% means that no spider mites have been killed.

Rhipicephalus sanguineus = Rhipicephalus sanguineus in vitro contact test with adult brown dog ticks; details: application rate 5 μg/cm^2 (=500 g/ha), after 48 h, adult dog ticks dead or moribund
Experimental: Rhipicephalus sanguineus—In Vitro Contact Tests with Adult Brown Dog Ticks
For the coating of the test tubes, 9 mg of active ingredient are first dissolved in 1 ml of acetone p.a. and then diluted to the desired concentration with acetone p.a. 250 μl of the solution are distributed homogeneously on the inner walls and the base of a 25 ml glass tube by turning and rocking on an orbital shaker (rocking rotation at 30 rpm for 2 h). With 900 ppm of active ingredient solution and internal surface area 44.7 cm^2, given homogeneous distribution, an area-based dose of 5 μg/cm^2 is achieved.
After the solvent has evaporated off, the tubes are populated with 5-10 adult dog ticks (Rhipicephalus sanguineus), sealed with a perforated plastic lid and incubated in a horizontal position in the dark at room temperature and ambient humidity. After 48 h, efficacy is determined. To this end, the ticks are knocked to the base of the tube and incubated on a hotplate at 45-50° C. for not more than 5 min. Ticks which remain motionless on the base or move in such an uncoordinated manner that they are unable to deliberately avoid the heat by climbing upwards are considered to be dead or moribund.
An efficacy of 100% means that all the ticks were dead or moribund. 0% efficacy means that none of the ticks were harmed.

[1] = test system: cattle ticks (Boophilus microplus) Parkhurst strain, SP-resistant; assay: Boophilus microplus dip test; details: application rate 100 ppm, assessed after 7 days by laying of fertile eggs
Experimental: Boophilus microplus—Dip Test
Test animals: cattle ticks (Boophilus microplus) Parkhurst strain, SP-resistant
(§2) Solvent: dimethyl sulfoxide
10 mg of active ingredient are dissolved in 0.5 ml of dimethyl sulfoxide. To produce a suitable formulation, the active ingredient solution is diluted with water to the concentration desired in each case. This active ingredient formulation is pipetted into tubes. 8-10 engorged adult female cattle ticks (Boophilus microplus) are transferred into a further tube with holes. The tube is immersed into the active ingredient formulation, and all the ticks are completely wetted. After the liquid has run out, the ticks are transferred on filter discs into plastic dishes and stored in a climate-controlled room.
(§3) Efficacy is assessed after 7 days by laying of fertile eggs. Eggs which are not visibly fertile are stored in a climate-controlled cabinet until the larvae hatch after about 42 days. An efficacy of 100% means that none of the ticks has laid any fertile eggs; 0% means that all the eggs are fertile.

Boophilus microplus = Boophilus microplus injection test; details: application rate 20 μg/animal, assessed after 7 days by laying of fertile eggs
Experimental: Boophilus microplus—Injection Test
as §2
To produce a suitable active compound preparation, 10 mg of active compound are mixed with 0.5 ml of solvent and the concentrate is diluted to the desired concentration with solvent.
1 μl of the active ingredient solution is injected into the abdomen of 5 engorged adult female cattle ticks (Boophilus microplus). The animals are transferred into dishes and kept in a climate-controlled room.
as §3

Ctenocephalides felis = Ctenocephalides felis oral test; details: application rate 100 ppm in citrated cattle blood, after 2 days
Experimental: Ctenocephalides felis—Oral Test
as §2
To produce a suitable active ingredient formulation, 10 mg of active ingredient are mixed with 0.5 ml of dimethyl sulfoxide. Dilution with citrated cattle blood gives the desired concentration.
About 20 unfed adult cat fleas (Ctenocephalides felis) are placed into a chamber which is closed at the top and bottom with gauze. A metal cylinder whose bottom end is closed with parafilm is placed onto the chamber. The cylinder contains the blood/active ingredient formulation, which can be imbibed by the fleas through the parafilm membrane.
After 2 days, the rate of extermination in % is determined. 100% means that all of the fleas have been killed; 0% means that none of the fleas have been killed.

Lucilia cuprina = Lucilia cuprina test; details: application rate 100 ppm, L1 larvae, after 2 days
Experimental: as §2
(§4) To produce a suitable active ingredient formulation, 10 mg of active ingredient are mixed with 0.5 ml of dimethyl sulfoxide, and the concentrate is diluted with water to the desired concentration.
About 20 L1 larvae of the Australian sheep blowfly (Lucilia cuprina) are transferred into a test vessel containing minced horsemeat and the active compound preparation of the desired concentration.
After 2 days, the rate of extermination in % is determined. 100% means that all the larvae have been killed; 0% means that no larvae have been killed.

Musca domestica = Musca domestica test; details: application rate 100 ppm, adult houseflies, after 2 days
Experimental: as §2, §4
Vessels containing a sponge treated with sugar solution and the active ingredient formulation of the desired concentration are populated with 10 adult houseflies (Musca domestica).
After 2 days, the rate of extermination in % is determined. 100% means that all of the flies have been killed; 0% means that none of the flies have been killed.

| SMILES | efficacy (Boophilus microplus) [%] | efficacy (rate of extermination) (Ctenocephalides felis) [%] | efficacy (rate of extermination) (Lucilia cuprina) [%] | efficacy (rate of extermination) (Musca domestica) [%] | efficacy (Phaedon cochleariae) [%] | efficacy (Spodoptera frugiperda) [%] | further results |
| --- | --- | --- | --- | --- | --- | --- | --- |
| CS(=O)(=O)NC(=O)c1csc(-c2cnn(-c3cccnc3)c2)n1 [Example No. 36 WO2012/000896, reference compound] | – | – | – | – | – | – | Emax at 100 g/ha (Myzus persicae; Myzus persicae, 144 h, MYZUPE, 100 g ai/ha, 6 dat, read-out: % efficacy dat): 0%; Emax at 500 g/ha (Phaedon cochleariae; Phaedon cochleariae, 168 h, PHAECO, 500 g ai/ha, 7 dat, read-out: % efficacy dat): 0%; Emax at 500 g/ha (Spodoptera frugiperda; Spodoptera frugiperda, 168 h, SPODFR, 500 g ai/ha, 7 dat, read-out: % efficacy dat): 0%; Emax at 500 g/ha (Tetranychus urticae; Tetranychus urticae, 144 h, TETRUR, 500 g ai/ha, 6 dat, read-out: % efficacy dat): 0% |
| N#CC1(NC(=O)c2cc(-c3cnn(-c4c(Cl)cc(C(F)(C(F)(F)F)C(F)(F)F)cc4Cl)c3)sc2Br)CC1 [I-T1-2] | 100 | 100 | 100 | 100 | 100 | 100 | efficacy (Rhipicephalus sanguineus): 100%; efficacy [1]: 100%; efficacy (Myzus persicae; application rate 100 g/ha, spray, after 5 days): 100%; efficacy (Tetranychus urticae; application rate 20 g/ha): 90% |
| Cn1cc(-c2cnn(-c3c(Cl)cc(C(F)(C(F)(F)F)C(F)(F)F)cc3Cl)c2)cc1C(=O)NC1(C#N)CC1 [I-T1-4] | 100 | 100 | 100 | – | 100 | – | – |
| N#CC1(NC(=O)c2csc(-c3cnn(-c4c(Cl)cc(C(F)(C(F)(F)F)C(F)(F)F)cc4Cl)c3)n2)CC1 [I-T1-5, N-(1-cyanocyclopropyl)-2-{1-[2,6-dichloro-4-(1,1,1,2,3,3,3-heptafluoropropan-2-yl)phenyl]-1H-pyrazol-4-yl}-1,3-thiazole-4-carboxamide] | – | 100 | 80 | 90 | – | – | pest or weed control at 100 g/ha (Phaedon cochleariae; Phaedon cochleariae, 168 h): 100% |
| O=C(NCc1ccccc1)c1cc(-c2cnn(-c3c(Cl)cc(C(F)(C(F)(F)F)C(F)(F)F)cc3Cl)c2)sc1Br [I-T1-6] | 100 | 100 | 95 | – | – | 100 | – |
| O=C(NC1CC1)c1nc(-c2cnn(-c3c(Cl)cc(C(F)(C(F)(F)F)C(F)(F)F)cc3Cl)c2)sc1Cl [I-T1-7] | 100 | – | – | – | 83 | – | – |
| O=C(NC1CC1)c1csc(-c2cnn(-c3c(Cl)cc(C(F)(C(F)(F)F)C(F)(F)F)cc3Cl)c2)n1 [I-T1-8] | – | 100 | 80 | – | 83 | – | – |
| O=C(NC1CC1)c1cc(-c2cnn(-c3c(Cl)cc(C(F)(C(F)(F)F)C(F)(F)F)cc3Cl)c2)sc1I [I-T1-14] | 100 | 100 | 100 | 100 | 100 | 100 | efficacy (Rhipicephalus sanguineus): 100%; efficacy [1]: 100%; efficacy (Tetranychus urticae; application rate 100 g/ha): 100% |
| N#CC1(NC(=O)c2cc(-c3cnn(-c4c(Cl)cc(C(F)(C(F)(F)F)C(F)(F)F)cc4Cl)c3)sc2I)CC1 [I-T1-15] | 100 | 100 | 100 | 100 | 100 | 100 | efficacy (Rhipicephalus sanguineus): 80%; efficacy (Tetranychus urticae; application rate 20 g/ha): 90%; efficacy (Tetranychus urticae; application rate 100 g/ha): 100% |
| N#CC1(NC(=O)c2cc(-c3cnn(-c4c(Cl)cc(C(F)(C(F)(F)F)C(F)(F)F)cc4Cl)c3)sc2Cl)CC1 [I-T1-17, 2-chloro-N-(1-cyanocyclopropyl)-5-{1-[2,6-dichloro-4-(1,1,1,2,3,3,3-heptafluoropropan-2-yl)phenyl]-1H-pyrazol-4-yl}thiophene-3-carboxamide] | – | – | – | – | – | – | pest or weed control at 100 g/ha (Phaedon cochleariae; Phaedon cochleariae, 168 h): 100%; pest or weed control at 100 g/ha (Spodoptera frugiperda; Spodoptera frugiperda, 168 h): 100%; efficacy (Tetranychus urticae; application rate 20 g/ha): 100%; efficacy (Tetranychus urticae; application rate 100 g/ha): 100% |
| CN(C(=O)c1cc(-c2cnn(-c3c(Cl)cc(C(F)(C(F)(F)F)C(F)(F)F)cc3Cl)c2)sc1Cl)C1(C#N)CC1 [I-T1-18, 2-chloro-N-(1-cyanocyclopropyl)-5-{1-[2,6-dichloro-4-(1,1,1,2,3,3,3-heptafluoropropan-2-yl)phenyl]-1H-pyrazol-4-yl}-N-methylthiophene-3-carboxamide] | – | – | – | – | – | – | pest or weed control at 100 g/ha (Phaedon cochleariae; Phaedon cochleariae, 168 h): 100%; pest or weed control at 100 g/ha (Spodoptera frugiperda; Spodoptera frugiperda, 168 h): 100% |
